From PubChem BioAssay AID623945 (Vanderbilt Specialized Chemistry Center, 2012)

The compounds below were run against Muscarinic acetylcholine receptor M4 (Rattus norvegicus) (UniProt P08485) (assay: rat M4 positive allosteric modulator potency, SAR follow-up, selectivity assay for human M4 PAM optimization, CHO cells, Gqi5 chimera, calcium, ACh EC20 (AID 623945)). Details: CHO rM4/Gqi5 calcium fluorescence, ACh EC20 potentiation.
Sequence of Muscarinic acetylcholine receptor M4 (Rattus norvegicus) (P08485 whole entry, looked up): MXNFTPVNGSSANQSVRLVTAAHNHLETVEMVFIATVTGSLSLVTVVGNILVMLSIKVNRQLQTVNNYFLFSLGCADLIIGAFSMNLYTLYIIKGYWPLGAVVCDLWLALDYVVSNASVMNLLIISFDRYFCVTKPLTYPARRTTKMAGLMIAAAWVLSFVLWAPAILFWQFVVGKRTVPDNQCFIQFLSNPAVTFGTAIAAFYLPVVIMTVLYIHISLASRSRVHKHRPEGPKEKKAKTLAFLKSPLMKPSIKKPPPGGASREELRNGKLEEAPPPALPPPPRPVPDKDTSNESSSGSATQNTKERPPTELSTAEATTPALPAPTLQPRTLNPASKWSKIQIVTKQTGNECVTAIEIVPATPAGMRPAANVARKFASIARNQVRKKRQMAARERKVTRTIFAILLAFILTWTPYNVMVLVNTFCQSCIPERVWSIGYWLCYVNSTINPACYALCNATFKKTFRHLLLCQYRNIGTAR

Cc1nc2sc(C(=O)NC3CC3)c(N)c2c(C)c1Cl and Cc1nc2sc(C(=O)NCc3nccs3)c(N)c2c(C)c1Cl are within 1.5-fold of each other in EC50: 151 nM for the first, 187 nM for the second.

Going from Cc1nc2sc(C(=O)NCc3cccnc3)c(N)c2c(C)c1Cl to Cc1nc2sc(C(=O)NCc3ccncc3)c(N)c2c(C)c1Cl, the EC50 falls from 272 nM to 173 nM (1.6-fold). The second is the more potent here.

Cc1nc2sc(C(=O)NCc3ccccc3)c(N)c2c(C)c1Cl and Cc1nc2sc(C(=O)NCc3cccc(F)c3F)c(N)c2c(C)c1Cl are within 1.5-fold of each other in EC50: 126 nM for the first, 114 nM for the second.

Compared with Cc1nc2sc(C(=O)NCCc3ccncc3)c(N)c2c(C)c1Cl, Cc1nc2sc(C(=O)NCc3ccncn3)c(N)c2c(C)c1Cl is 2.3-fold higher in EC50: 229 nM for the first, 527 nM for the second. The first is the more potent here.

First: COc1ccc(C)c2sc(NC(=O)c3ccncc3)nc12
Second: Cc1nc2sc(C(=O)NCc3ccc4c(c3)OCO4)c(N)c2c(C)c1Cl
The EC50 of the first is 52-fold higher: 3210 nM for the first, 62 nM for the second. The second is the more potent here.
